Laboratory results: US20190030114A1, “ISOFORM-SPECIFIC CALPAIN INHIBITORS, METHODS OF IDENTIFICATION, AND USES THEREOF” (WESTERN UNIVERSITY OF HEALTH SCIENCES, priority 2014, published 2019)

Experiments:
[1] = test system: field CA1 in acute hippocampal slices from male UBEA mutant mice; assay: field EPSP recording, LTP in hippocampal slices from UBEA mutant mice (Angelman Syndrome model); format: cell-based; conditions: 200 nM
Method: FIG. 4: Field recording of excitatory postsynaptic potentials (EPSPs) performed in stratum radiatum of field CA1 in acute hippocampal slices prepared from male UBEA mutant mice (a model of Angelman Syndrome) or their wild-type littermates in the presence or absence of 200 nM of the calpain-2 selective inhibitor, Formula I (mCalp-I in the drawing). Results are expressed as percent of the average values over a 10 min baseline period and are means±S.E.M. of the indicated number of experiments.
A calpain 2-specific inhibitor rescues LTP impairment in hippocampal slices from a mouse model of Angelman Syndrome. Field recording of excitatory postsynaptic potentials (EPSPs) was performed in stratum radiatum of field CA1 in acute hippocampal slices prepared from male UBEA mutant mice or their wild-type littermates.

[2] = test system: cortical neuronal cultures (14 DIV); assay: neuronal death mediated by extrasynaptic NMDA receptor activation; format: cell-based; conditions: dose-dependent from 200 nM to 5 μM
Method: Results are expressed as percent of neurons positively stained with the Hoechst reagent and are means±S.E.M. of 3-4 experiments (*p<0.01, Student's t-test).
A selective calpain-2 inhibitor blocks neuronal death mediated by extrasynaptic NMDA receptor activation. Cortical neuronal cultures (14 DIV) were treated to induce selective activation of extrasynaptic NMDA receptors, which results in neuronal cell death.

[3] = test system: retina (GCL, IPL); assay: retinal damage induced by intravitreal NMDA injection, systemic (i.p.) inhibitor; format: in vivo, mice
Method: FIG. 8A: Representative images show H&E-stained ganglion cell and Plexiform layers of: i) naïve retina; ii) PBS-treated (intravitreally, 2 μI) or NMDA-treated (intravitreally, 2 μI of 2.5 mM) retina from wild-type mice that had been intraperitoneally injected with vehicle (20% DMSO), Formula I (C2l in the drawing, 0.3 mg/kg) or the pan-calpain inhibitor calpeptin (10 mg/kg) at 30 min before and 6 h after NMDA injection. H&E staining was done at 7 days after NMDA injection.
FIG. 8B: Quantitative analysis of cell number in the GCL of wild-type mice that had been injected intravitreally 7 days earlier with either 2 μI PBS or 2 μI NMDA (2.5 mM). The mice were intraperitoneally injected with vehicle (20% DMSO), a Formula I (C2l in the drawing, 0.3 mg/kg) or the pan-calpain inhibitor calpeptin (10 mg/kg) at 30 min before and 6 h after NMDA injection. Columns represent mean±S.E.M. n=4-6. *p<0.05; **p<0.01; ***p<0.001 versus NMDA plus vehicle-injected group. One-way ANOVA followed by Bonferroni test.
FIG. 8C: Quantitative analysis of thickness of the IPL of wild-type mice that had been injected intravitreally 7 days earlier with either 2 μI PBS or 2 μI NMDA (2.5 mM). The mice were intraperitoneally injected with vehicle (20% DMSO), Formula I (C2l in the drawing, 0.3 mg/kg) or the pan-calpain inhibitor calpeptin (10 mg/kg) at 30 min before and 6 h after NMDA injection.
FIG. 9A: Representative immunoblot of the levels of Spectrin breakdown products (SBDP), full-length PH domain and Leucine-rich repeat Protein Phosphatase 1 (PHLPP1)α and Akt in mouse retinal extracts 6 h after intravitreal injection of PBS (control) or NMDA (2 μI of 2.5 mM). Mice were injected i.p. with vehicle (10% DMSO) or C2l (0.3 mg/kg) 30 min before intravitreal injection.
FIG. 9B: Quantitation of ratios of SBDP/Akt, as determined in retinal extracts 6 h after NMDA or PBS injections. Data represent means±S.E.M. n=4. *p<0.05, ***p<0.001,. One-way ANOVA followed by Bonferroni test.
FIG. 9C: Quantitation of ratios of PHLPP1α/Akt, as determined in retinal extracts 6 h after NMDA or PBS injections. Data represent means±S.E.M. n=4. *p<0.05, ***p<0.001,. One-way ANOVA followed by Bonferroni test.
(§1) FIG. 9E: Quantitative analysis of cell number in the GCL from wild-type mice 7 days after NMDA-injection. Six sections cut through the optic disc from each eye were analyzed. Cell numbers in GCL at a distance between 500 and 1000 μm from the optic disc were counted. Cell densities from 6 sections from each eye were averaged.
as §1, with “FIG. 9F:” for “FIG. 9E:”, “of thickness of” for “of cell number in”, “the IPL” for “the GCL”
as §1, with “9H:” for “9E:”, “calpain-1 KO” for “wild-type”, “averaged. Data represent means±S.E.M. n=6. *p<0.05, **p<0.01, ***p<0.001, One-way ANOVA followed by Bonferroni test.” for “averaged.”
as §1, with “9I:” for “9E:”, “thickness of” for “cell number in”, “IPL of calpain-1” for “GCL from wild-type”, “averaged. Data represent means±S.E.M. n=6. *p<0.05, **p<0.01, ***p<0.001, One-way ANOVA followed by Bonferroni test.” for “averaged.”
FIG. 9J: Comparison of GCL cell numbers in NMDA-treated WT and KO mice without and with C2l treatment. n=6. **p<0.01. Two-tailed t-test. […]

[4] = WT mice, i.p. 30 min before and 6 h after NMDA
[5] = calpain-1 KO mice, systemic injection
[6] = i.p. 30 min before NMDA, 6 h after NMDA, WT mice

CCC(NC(=O)C(CC(C)C)NC(=O)OCc1ccccc1)C(=O)C(=O)NCc1cc(OC)cc(OC)c1 (racemic) [Formula 1, Z-Leu-Abu-CONH—CH2-C6H3 (3, 5-(OMe)2)]
LTP magnitude in slices from UBEA mutant mice [1]: restored LTP magnitude to the level found in slices from wild-type mice | initial increase in fEPSP elicited by TBS [1]: no effect | neuronal cell death associated with extrasynaptic NMDA receptor activation [2]: reduced the neuronal cell death | neuronal cell death associated with extrasynaptic NMDA receptor activation ([2]; listed as Formula I): reduced neuronal cell death | NMDA-induced retinal damage ([3]; 0.3 mg/kg i.p. 30 min before and 6 h after NMDA, wild-type mice): protective against NMDA-induced retinal damage | effect on GCL cell survival, KO versus WT mice ([3]; NMDA-treated): lower in KO mice than in WT mice | NMDA-induced reduction in GCL cell density [3, 4]: significantly suppressed the reduction | NMDA-induced reduction in IPL thickness [3, 4]: significantly suppressed the reduction | NMDA-induced decrease in GCL cell density [3, 5]: partially but significantly reversed | NMDA-induced decrease in IPL thickness [3, 5]: partially but significantly reversed | NMDA-induced changes in PHLPP1 in retinal extracts [3, 6]: not | NMDA-induced changes in SBDP in retinal extracts [3, 6]: significantly suppressed
